Results on five molecules are retold here after patent publication US12139520B2 (priority 2020, dated 2024).

Bridge positions count the residues as written; N and C are the ends. Square brackets hold non-standard residues; d marks the D form. Peptide text beside a SMILES is read from it. Hyp = O=C(O)[C@@H]1C[C@@H](O)CN1; Cit = NC(=O)NCCC[C@H](N)C(=O)O

In data set [1] the target is T1, hAMY3 receptor (Homo sapiens, UniProt O60896+P30988).
T1 sequence (P30988 25-474): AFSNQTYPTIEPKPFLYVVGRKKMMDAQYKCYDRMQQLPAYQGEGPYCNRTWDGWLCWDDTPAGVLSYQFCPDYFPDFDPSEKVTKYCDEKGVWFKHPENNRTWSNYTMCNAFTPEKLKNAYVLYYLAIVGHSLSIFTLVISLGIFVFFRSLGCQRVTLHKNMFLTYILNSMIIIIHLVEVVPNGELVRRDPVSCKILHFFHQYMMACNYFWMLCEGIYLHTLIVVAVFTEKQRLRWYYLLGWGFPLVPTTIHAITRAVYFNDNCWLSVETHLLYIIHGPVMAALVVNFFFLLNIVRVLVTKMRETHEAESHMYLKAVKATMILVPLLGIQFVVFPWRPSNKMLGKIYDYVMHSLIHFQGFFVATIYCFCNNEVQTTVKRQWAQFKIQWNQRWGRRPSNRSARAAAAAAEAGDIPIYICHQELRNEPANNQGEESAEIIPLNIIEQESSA
T1 sequence (O60896 24-148 partner): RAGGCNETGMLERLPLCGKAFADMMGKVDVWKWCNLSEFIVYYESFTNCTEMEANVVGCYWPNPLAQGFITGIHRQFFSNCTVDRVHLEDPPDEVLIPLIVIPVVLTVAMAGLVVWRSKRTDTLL
Briefly: cAMP assay for in vitro receptor activation, hAMY3-R. The conditions noted are these: cAMP assay, hAMY3 receptor; read-out: hAMY3R EC50. Format: cell-based. In outline:
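Stable hAMY3 cells; DPBS + 0.05% casein + 0.5 mM IBMX; graded compound doses, 30 min, RT; cAMP via HTRF Gs kit, TR-FRET read at 1 h.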

Data set [2] has as its target hAM1 receptor (Homo sapiens, UniProt O60895+Q16602). The data set can be described thus: cAMP assay for in vitro receptor activation, hAM1-R. The settings on record: cAMP assay, hAM1 receptor; read-out: hAM1R EC50. The class given is cell-based. In outline:
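Monoclonal stable hAM1-overexpressing cells, thawed from frozen stock; 8000 cells/well in DPBS + 0.05% casein + 0.5 mM IBMX; read-out cAMP.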

A short description of data set [3]: Physical stability of peptide analogues (Thioflavin T fibrillation). The class given is physicochemical. The conditions noted are these: maximum ThT signal normalized between hAMY maximum and buffer background; 40° C., shaking, four days; pH 7 per table title. In outline: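 Peptides in 50 mM sodium acetate pH 4 or 50 mM sodium phosphate pH 7 were preincubated 1 h, mixed with 4 μM ThT, held at 40° C with 700 rpm shaking before each read. Fluorescence (ex 450/em 480 nm) every 10 min for four days; LOESS-smoothed maximum signal normalized in percent between hAMY and buffer.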

Sequence of hAM1 receptor (Q16602 23-461): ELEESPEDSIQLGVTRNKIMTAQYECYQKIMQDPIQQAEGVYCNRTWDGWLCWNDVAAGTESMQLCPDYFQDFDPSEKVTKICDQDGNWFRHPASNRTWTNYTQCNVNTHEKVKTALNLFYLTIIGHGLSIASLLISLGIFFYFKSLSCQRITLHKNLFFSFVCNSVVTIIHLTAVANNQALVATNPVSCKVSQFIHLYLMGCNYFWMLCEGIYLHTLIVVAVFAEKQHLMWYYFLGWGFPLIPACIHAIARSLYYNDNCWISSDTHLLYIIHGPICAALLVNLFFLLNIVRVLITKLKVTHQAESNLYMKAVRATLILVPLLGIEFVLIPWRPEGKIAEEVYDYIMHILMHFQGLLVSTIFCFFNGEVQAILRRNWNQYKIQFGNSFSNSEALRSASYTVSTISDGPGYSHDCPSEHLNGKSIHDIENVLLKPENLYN
Sequence of hAM1 receptor (O60895 43-175 partner): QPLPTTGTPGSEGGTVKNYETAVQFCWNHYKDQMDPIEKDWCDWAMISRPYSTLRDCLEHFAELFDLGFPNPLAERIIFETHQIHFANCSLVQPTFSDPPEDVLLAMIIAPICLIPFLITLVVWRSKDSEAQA

Take `CC[C@H](C)[C@H](NC(=O)[C@H](CCC(N)=O)NC(=O)[C@H](Cc1c[nH]cn1)NC(=O)[C@H](C)NC(=O)[C@H](CC(C)C)NC(=O)[C@H](CCCNC(=N)N)NC(=O)[C@H](CCC(N)=O)NC(=O)[C@@H](NC(=O)[C@@H](NC(=O)[C@@H]1CSSC[C@H](NC(=O)[C@@H](N)CCCCN)C(=O)N[C@@H](CC(N)=O)C(=O)N[C@@H]([C@@H](C)O)C(=O)N[C@@H](C)C(=O)N[C@@H]([C@@H](C)O)C(=O)N1)[C@@H](C)O)C(C)C)C(=O)N[C@@H](Cc1ccc(O)cc1)C(=O)N[C@@H](CCC(N)=O)C(=O)N[C@@H](Cc1ccccc1)C(=O)N[C@H](C(=O)N[C@@H](CC(=O)O)C(=O)N[C@@H](CCCCN)C(=O)N[C@@H](CC(=O)O)C(=O)N[C@@H](CCCCN)C(=O)N[C@@H](CC(=O)O)C(=O)N[C@@H](CC(N)=O)C(=O)N[C@H](C(=O)N[C@@H](C)C(=O)N1CCC[C@H]1C(=O)N[C@@H](CCCNC(=N)N)C(=O)N[C@H](C(=O)N[C@@H](CCCCN)C(=O)N[C@H](C(=O)NCC(=O)N[C@@H](CO)C(=O)N[C@@H](CC(N)=O)C(=O)NCC(=O)N1C[C@H](O)C[C@H]1C(N)=O)C(C)C)[C@@H](C)O)C(C)C)[C@@H](C)O` [compound 20] (H-KCNTATCTVQRLAHQIYQFTDKDKDNVAPRTKVGSNG[Hyp]-NH2; disulfide 2-7; N-terminus assumed): the EC50 is 0.008 nM in data set [1] and > 5000 nM in data set [2]. In addition, the “Max ThT signal (%)” value in data set [3] is 9.100%.
Take `CC[C@H](C)[C@H](NC(=O)[C@H](CCC(N)=O)NC(=O)[C@H](CC(=O)O)NC(=O)[C@H](C)NC(=O)[C@H](CC(C)C)NC(=O)[C@H](CCCNC(N)=O)NC(=O)[C@H](C)NC(=O)[C@@H](NC(=O)[C@@H](NC(=O)[C@@H]1CSSC[C@H](NC(=O)[C@@H](N)CCCCN)C(=O)N[C@@H](CC(N)=O)C(=O)N[C@@H]([C@@H](C)O)C(=O)N[C@@H](CO)C(=O)N[C@@H]([C@@H](C)O)C(=O)N1)[C@@H](C)O)C(C)C)C(=O)N[C@H](C(=O)N[C@@H](CCC(N)=O)C(=O)N[C@@H](Cc1ccccc1)C(=O)N[C@@H](CO)C(=O)N[C@@H](CC(N)=O)C(=O)N[C@@H](CCCCN)C(=O)N[C@@H](CC(=O)O)C(=O)N[C@@H](CCCCN)C(=O)N[C@@H](C)C(=O)N[C@@H](CCC(N)=O)C(=O)N[C@H](C(=O)N[C@@H](CO)C(=O)N1CCC[C@H]1C(=O)N1CCC[C@H]1C(=O)N[C@H](C(=O)N[C@@H](CCC(=O)O)C(=O)N[C@H](C(=O)NCC(=O)N1CCC[C@H]1C(=O)N[C@@H](CC(N)=O)C(=O)N[C@@H](CO)C(=O)N1C[C@H](O)C[C@H]1C(N)=O)C(C)C)[C@@H](C)O)C(C)C)[C@@H](C)O` [compound 244] (H-KCNTSTCTVA[Cit]LADQITQFSNKDKAQVSPPTEVGPNS[Hyp]-NH2; disulfide 2-7): the EC50 in data set [1] is 0.006 nM; in data set [2], > 5000 nM. In addition, the “Max ThT signal (%)” value in data set [3] is recorded as 4.100%.
On the same counts, the results for `CC[C@H](C)[C@H](NC(=O)[C@H](CCC(N)=O)NC(=O)[C@H](Cc1c[nH]cn1)NC(=O)[C@H](C)NC(=O)[C@H](CC(C)C)NC(=O)[C@H](CCCNC(N)=O)NC(=O)[C@H](CCC(N)=O)NC(=O)[C@@H](NC(=O)[C@@H](NC(=O)[C@@H]1CSSC[C@H](NC(=O)[C@@H](N)CCCCN)C(=O)N[C@@H](CC(N)=O)C(=O)N[C@@H]([C@@H](C)O)C(=O)N[C@@H](C)C(=O)N[C@@H]([C@@H](C)O)C(=O)N1)[C@@H](C)O)C(C)C)C(=O)N[C@@H](Cc1ccc(O)cc1)C(=O)N[C@@H](CCC(N)=O)C(=O)N[C@@H](Cc1ccccc1)C(=O)N[C@@H](CC(=O)O)C(=O)N[C@@H](CCCCN)C(=O)N[C@@H](CC(=O)O)C(=O)N[C@@H](CCCCN)C(=O)N[C@@H](CC(=O)O)C(=O)N[C@@H](CC(N)=O)C(=O)N[C@H](C(=O)N[C@@H](C)C(=O)N1CCC[C@H]1C(=O)N1CCC[C@H]1C(=O)N[C@H](C(=O)N[C@@H](CC(N)=O)C(=O)N[C@H](C(=O)NCC(=O)N[C@@H](CO)C(=O)N[C@@H](CC(N)=O)C(=O)NCC(=O)N1C[C@H](O)C[C@H]1C(N)=O)C(C)C)[C@@H](C)O)C(C)C` [compound 265] (H-KCNTATCTVQ[Cit]LAHQIYQFDKDKDNVAPPTNVGSNG[Hyp]-NH2; disulfide 2-7; N-terminus assumed) are 0.03 nM, > 5000 nM and 26.550%.
`CC[C@H](C)[C@H](NC(=O)[C@H](CCC(N)=O)NC(=O)[C@H](Cc1c[nH]cn1)NC(=O)[C@H](C)NC(=O)[C@H](CC(C)C)NC(=O)[C@H](Cc1c[nH]c2ccccc12)NC(=O)[C@H](CCC(N)=O)NC(=O)[C@@H](NC(=O)[C@@H](NC(=O)[C@@H]1CSSC[C@H](NC(=O)[C@@H](N)CCCCN)C(=O)N[C@@H](CC(N)=O)C(=O)N[C@@H]([C@@H](C)O)C(=O)N[C@@H](C)C(=O)N[C@@H]([C@@H](C)O)C(=O)N1)[C@@H](C)O)C(C)C)C(=O)N[C@@H](Cc1ccc(O)cc1)C(=O)N[C@@H](CCC(N)=O)C(=O)N[C@@H](Cc1ccccc1)C(=O)N[C@H](C(=O)N[C@@H](CCCCN)C(=O)N[C@@H](CC(=O)O)C(=O)N[C@@H](CCCCN)C(=O)N[C@@H](CC(=O)O)C(=O)N[C@@H](CC(N)=O)C(=O)N[C@H](C(=O)N[C@@H](C)C(=O)N1CCC[C@H]1C(=O)N1CCC[C@H]1C(=O)N[C@H](C(=O)N[C@@H](CC(N)=O)C(=O)N[C@H](C(=O)NCC(=O)N[C@@H](CO)C(=O)N[C@@H](CC(N)=O)C(=O)NCC(=O)N1C[C@H](O)C[C@H]1C(N)=O)C(C)C)[C@@H](C)O)C(C)C)[C@@H](C)O` [compound 317] (H-KCNTATCTVQWLAHQIYQFTKDKDNVAPPTNVGSNG[Hyp]-NH2; disulfide 2-7; N-terminus assumed): the EC50 in data set [1] was 0.004 nM; in data set [2] it was > 5000 nM. In addition, the “Max ThT signal (%)” value in data set [3] was 5.550%.
On the same counts, the results for `CC[C@H](C)[C@H](NC(=O)[C@H](CCC(N)=O)NC(=O)[C@H](Cc1c[nH]cn1)NC(=O)[C@H](C)NC(=O)[C@H](CC(C)C)NC(=O)[C@H](CCCNC(=N)N)NC(=O)[C@H](CCC(N)=O)NC(=O)[C@@H](NC(=O)[C@@H](NC(=O)[C@@H]1CSSC[C@H](NC(=O)CN)C(=O)N[C@@H](CCCNC(=N)N)C(=O)N[C@@H]([C@@H](C)O)C(=O)NCC(=O)N[C@@H]([C@@H](C)O)C(=O)N1)[C@@H](C)O)C(C)C)C(=O)N[C@@H](Cc1ccc(O)cc1)C(=O)N[C@@H](CCC(N)=O)C(=O)N[C@@H](Cc1ccccc1)C(=O)N[C@H](C(=O)N[C@@H](CC(N)=O)C(=O)N[C@@H](CCCCN)C(=O)N[C@@H](CC(=O)O)C(=O)N[C@@H](CCCCN)C(=O)N[C@@H](CC(=O)O)C(=O)N[C@@H](CC(N)=O)C(=O)N[C@H](C(=O)N[C@@H](C)C(=O)N1CCC[C@H]1C(=O)N[C@@H](CCCNC(=N)N)C(=O)N[C@@H](CO)C(=O)N[C@@H](CCCCN)C(=O)N[C@H](C(=O)N[C@@H](CO)C(=O)N1CCC[C@H]1C(=O)N[C@@H](CCC(N)=O)C(=O)N[C@H](C(=O)N[C@@H](CCSC)C(N)=O)[C@@H](C)O)[C@@H](C)CC)C(C)C)[C@@H](C)O` [compound 237] (H-GCRTGTCTVQRLAHQIYQFTNKDKDNVAPRSKISPQTM-NH2; disulfide 2-7) are 0.235 nM, 4250 nM and 0.300%.
